From patent US7811797B2, “α-isomaltosylglucosaccharide-forming enzyme, process and uses of the same” (Kabushiki Kaisha Hayashibara Seibutsu Kagaku Kenkyujo, priority 2000, dated 2010)

How the values were obtained:
Parameters in all cases: key: −: no saccharide-transferred product was detected through transfer reaction to acceptor; ∀: a saccharide-transferred product was detected in an amount less than one percent through transfer reaction to acceptor; +: a saccharide-transferred product was detected in an amount over one percent but less than ten percent through transfer reaction to acceptor; ++: a saccharide-transferred product was detected in an amount over ten percent through transfer reaction to acceptor
[1] = test system: α-isomaltosylglucosaccharide-forming enzyme; assay: Transfer-acceptor specificity, Enzyme of Strain C9; type: biochemical, Bacillus globisporus C9; conditions: acceptor 1.6%, PINE-DEX #100 donor 4%, one unit/g donor, 30° C., pH 6.0, 24 hours
Procedure: (§1) Using different saccharides, it was tested whether the saccharides were used as transferring-acceptors for the α-isomaltosylglucosaccharide-forming enzyme of the present invention. A solution of D-glucose, D-xylose, L-xylose, D-galactose, D-fructose, D-mannose, D-arabinose, D-fucose, D-psicose, L-sorbose, L-rhamnose, methyl-α-glucopyranoside, methyl-β-glucopyranoside, N-acetyl-glucosamine, sorbitol, trehalose, isomaltose, isomaltotriose, cellobiose, gentibiose, glycerol, maltitol, lactose, sucrose, α-cyclodextrin, β-cyclodextrin, γ-cyclodextrin, or L-ascorbic acid was prepared.
(§2) To each solution with a saccharide concentration of 1.6% was added “PINE-DEX #100”, a partial starch hydrolysate, as a saccharide donor, to give a concentration of 4%, and admixed with one unit/g saccharide donor, d.s.b., of either of purified specimens of α-isomaltosylglucosaccharide-forming enzyme from Bacillus globisporus C9 obtained by the method in Experiment 4-2, Bacillus globisporus C11 obtained by the method in Experiment 7-2, Bacillus globisporus N75 obtained by the method in Experiment 11-2, or Arthrobacter globiformis A19 obtained by the method in Experiment 15-2, and incubated at 30° C. and pH 6.0, except that pH 8.4 was used for the enzyme from Arthrobacter globiformis A19, for 24 hours. The reaction mixtures of the post-enzymatic reactions were analyzed on gas chromatography (abbreviated as “GLC” hereinafter) for monosaccharides and disaccharides as acceptors, and on HPLC for trisaccharides as acceptors to confirm whether these saccharides could be used as their transfer acceptors. In the case of performing GLC, the following apparatuses and conditions are used: GLC apparatus, “GC-16A” commercialized by Shimadzu Corporation, Tokyo, Japan; column, a stainless-steel column, 3 mm in diameter and 2 m in length, packed with 2% “SILICONE OV-17/[…]”, commercialized by GL Sciences Inc., Tokyo, Japan; carrier gas, nitrogen gas at a flow rate of 40 ml/min under temperature conditions of increasing from 160° C. to 320° C. at an increasing temperature rate of 7.5° C./min; and detection, a hydrogen flame ionization detector. In the case of HPLC analysis, the apparatuses and conditions used are: HPLC apparatus, “CCPD” commercialized by Tosoh Corporation, Tokyo, Japan; column, “ODS-AQ-303” commercialized by YMC Co., Ltd., Tokyo, Japan; eluent, water at a flow rate of 0.5 ml/min; and detection, a differential refractometer.

[2] = test system: α-isomaltosylglucosaccharide-forming enzyme; assay: Transfer-acceptor specificity, Enzyme of Strain C11; type: biochemical, Bacillus globisporus C11; conditions: acceptor 1.6%, PINE-DEX #100 donor 4%, one unit/g donor, 30° C., pH 6.0, 24 hours
Procedure: as §1, §2

[3] = test system: α-isomaltosylglucosaccharide-forming enzyme; assay: Transfer-acceptor specificity, Enzyme of Strain N75; type: biochemical, Bacillus globisporus N75; conditions: acceptor 1.6%, PINE-DEX #100 donor 4%, one unit/g donor, 30° C., pH 6.0, 24 hours
Procedure: as §1, §2

[4] = test system: α-isomaltosylglucosaccharide-forming enzyme; assay: Transfer-acceptor specificity, Enzyme of Strain A19; type: biochemical, Arthrobacter globiformis A19; conditions: acceptor 1.6%, PINE-DEX #100 donor 4%, one unit/g donor, 30° C., pH 8.4, 24 hours
Procedure: as §1, §2

O=C[C@@H](O)[C@H](O)[C@H](O)CO [D-Arabinose]
Product of transferring reaction, Enzyme of Strain C9 [1]: ∀ (a saccharide-transferred product was detected in an amount less than one percent through transfer reaction to acceptor) | Product of transferring reaction, Enzyme of Strain C11 [2]: ∀ (a saccharide-transferred product was detected in an amount less than one percent through transfer reaction to acceptor) | Product of transferring reaction, Enzyme of Strain N75 [3]: ∀ (a saccharide-transferred product was detected in an amount less than one percent through transfer reaction to acceptor) | Product of transferring reaction, Enzyme of Stain A19 [4]: ∀ (a saccharide-transferred product was detected in an amount less than one percent through transfer reaction to acceptor)

O=C(CO)[C@@H](O)[C@H](O)[C@H](O)CO [D-Fructose]
Product of transferring reaction, Enzyme of Strain C9 [1]: + (a saccharide-transferred product was detected in an amount over one percent but less than ten percent through transfer reaction to acceptor) | Product of transferring reaction, Enzyme of Strain C11 [2]: + (a saccharide-transferred product was detected in an amount over one percent but less than ten percent through transfer reaction to acceptor) | Product of transferring reaction, Enzyme of Strain N75 [3]: + (a saccharide-transferred product was detected in an amount over one percent but less than ten percent through transfer reaction to acceptor) | Product of transferring reaction, Enzyme of Stain A19 [4]: + (a saccharide-transferred product was detected in an amount over one percent but less than ten percent through transfer reaction to acceptor)

C[C@@H](O)[C@H](O)[C@H](O)[C@@H](O)C=O [D-Fucose]
Product of transferring reaction, Enzyme of Strain C9 [1]: + (a saccharide-transferred product was detected in an amount over one percent but less than ten percent through transfer reaction to acceptor) | Product of transferring reaction, Enzyme of Strain C11 [2]: + (a saccharide-transferred product was detected in an amount over one percent but less than ten percent through transfer reaction to acceptor) | Product of transferring reaction, Enzyme of Strain N75 [3]: + (a saccharide-transferred product was detected in an amount over one percent but less than ten percent through transfer reaction to acceptor) | Product of transferring reaction, Enzyme of Stain A19 [4]: ∀ (a saccharide-transferred product was detected in an amount less than one percent through transfer reaction to acceptor)

O=C[C@H](O)[C@@H](O)[C@@H](O)[C@H](O)CO [D-Galactose]
Product of transferring reaction, Enzyme of Strain C9 [1]: + (a saccharide-transferred product was detected in an amount over one percent but less than ten percent through transfer reaction to acceptor) | Product of transferring reaction, Enzyme of Strain C11 [2]: + (a saccharide-transferred product was detected in an amount over one percent but less than ten percent through transfer reaction to acceptor) | Product of transferring reaction, Enzyme of Strain N75 [3]: + (a saccharide-transferred product was detected in an amount over one percent but less than ten percent through transfer reaction to acceptor) | Product of transferring reaction, Enzyme of Stain A19 [4]: ∀ (a saccharide-transferred product was detected in an amount less than one percent through transfer reaction to acceptor)

O=C[C@H](O)[C@@H](O)[C@H](O)[C@H](O)CO [D-Glucose, reference compound]
Product of transferring reaction, Enzyme of Strain C9 [1]: + (a saccharide-transferred product was detected in an amount over one percent but less than ten percent through transfer reaction to acceptor) | Product of transferring reaction, Enzyme of Strain C11 [2]: + (a saccharide-transferred product was detected in an amount over one percent but less than ten percent through transfer reaction to acceptor) | Product of transferring reaction, Enzyme of Strain N75 [3]: + (a saccharide-transferred product was detected in an amount over one percent but less than ten percent through transfer reaction to acceptor) | Product of transferring reaction, Enzyme of Stain A19 [4]: + (a saccharide-transferred product was detected in an amount over one percent but less than ten percent through transfer reaction to acceptor)

O=C[C@@H](O)[C@@H](O)[C@H](O)[C@H](O)CO [D-Mannose]
Product of transferring reaction, Enzyme of Strain C9 [1]: − | Product of transferring reaction, Enzyme of Strain C11 [2]: − | Product of transferring reaction, Enzyme of Strain N75 [3]: − | Product of transferring reaction, Enzyme of Stain A19 [4]: ∀ (a saccharide-transferred product was detected in an amount less than one percent through transfer reaction to acceptor)

O=C(CO)[C@H](O)[C@H](O)[C@H](O)CO [D-Psicose]
Product of transferring reaction, Enzyme of Strain C9 [1]: + (a saccharide-transferred product was detected in an amount over one percent but less than ten percent through transfer reaction to acceptor) | Product of transferring reaction, Enzyme of Strain C11 [2]: + (a saccharide-transferred product was detected in an amount over one percent but less than ten percent through transfer reaction to acceptor) | Product of transferring reaction, Enzyme of Strain N75 [3]: + (a saccharide-transferred product was detected in an amount over one percent but less than ten percent through transfer reaction to acceptor) | Product of transferring reaction, Enzyme of Stain A19 [4]: + (a saccharide-transferred product was detected in an amount over one percent but less than ten percent through transfer reaction to acceptor)

O=C[C@H](O)[C@@H](O)[C@H](O)CO [D-Xylose]
Product of transferring reaction, Enzyme of Strain C9 [1]: ++ (a saccharide-transferred product was detected in an amount over ten percent through transfer reaction to acceptor) | Product of transferring reaction, Enzyme of Strain C11 [2]: ++ (a saccharide-transferred product was detected in an amount over ten percent through transfer reaction to acceptor) | Product of transferring reaction, Enzyme of Strain N75 [3]: ++ (a saccharide-transferred product was detected in an amount over ten percent through transfer reaction to acceptor) | Product of transferring reaction, Enzyme of Stain A19 [4]: + (a saccharide-transferred product was detected in an amount over one percent but less than ten percent through transfer reaction to acceptor)

OCC(O)CO [Glycerol]
Product of transferring reaction, Enzyme of Strain C9 [1]: + (a saccharide-transferred product was detected in an amount over one percent but less than ten percent through transfer reaction to acceptor) | Product of transferring reaction, Enzyme of Strain C11 [2]: + (a saccharide-transferred product was detected in an amount over one percent but less than ten percent through transfer reaction to acceptor) | Product of transferring reaction, Enzyme of Strain N75 [3]: + (a saccharide-transferred product was detected in an amount over one percent but less than ten percent through transfer reaction to acceptor) | Product of transferring reaction, Enzyme of Stain A19 [4]: + (a saccharide-transferred product was detected in an amount over one percent but less than ten percent through transfer reaction to acceptor)

O=C1O[C@H]([C@@H](O)CO)C(O)=C1O [L-Ascorbic acid]
Product of transferring reaction, Enzyme of Strain C9 [1]: + (a saccharide-transferred product was detected in an amount over one percent but less than ten percent through transfer reaction to acceptor) | Product of transferring reaction, Enzyme of Strain C11 [2]: + (a saccharide-transferred product was detected in an amount over one percent but less than ten percent through transfer reaction to acceptor) | Product of transferring reaction, Enzyme of Strain N75 [3]: + (a saccharide-transferred product was detected in an amount over one percent but less than ten percent through transfer reaction to acceptor) | Product of transferring reaction, Enzyme of Stain A19 [4]: + (a saccharide-transferred product was detected in an amount over one percent but less than ten percent through transfer reaction to acceptor)

C[C@H](O)[C@H](O)[C@@H](O)[C@@H](O)C=O [L-Rhamnose]
Product of transferring reaction, Enzyme of Strain C9 [1]: − | Product of transferring reaction, Enzyme of Strain C11 [2]: − | Product of transferring reaction, Enzyme of Strain N75 [3]: − | Product of transferring reaction, Enzyme of Stain A19 [4]: −
